We go through 22 molecules from BindingDB's records for doi:10.1016/j.bmcl.2011.07.110 (Second Military Medical University, 2011).

Sequence of Acrosin (P10323 20-42 limits assumed): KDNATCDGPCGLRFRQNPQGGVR
Sequence of Acrosin (P10323 43-343 limits assumed): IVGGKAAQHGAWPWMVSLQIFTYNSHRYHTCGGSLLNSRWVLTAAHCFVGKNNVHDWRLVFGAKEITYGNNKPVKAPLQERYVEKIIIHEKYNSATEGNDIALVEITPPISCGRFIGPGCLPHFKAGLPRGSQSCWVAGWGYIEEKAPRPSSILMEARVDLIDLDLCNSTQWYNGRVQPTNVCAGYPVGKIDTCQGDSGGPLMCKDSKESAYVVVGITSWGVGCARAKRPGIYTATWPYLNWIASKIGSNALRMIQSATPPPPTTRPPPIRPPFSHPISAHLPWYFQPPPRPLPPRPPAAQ

This test has as its target Acrosin (Homo sapiens, UniProt P10323). The test is described as follows: Inhibition of human acrosin using N-alpha-benzoyl-DL-arginine para-nitroanilide-HCl as substrate after 3 hrs by spectrophotometry.
Usually IC50 stands for the point on the concentration scale where inhibition reaches its midpoint. High values mean a need for much substance, low ones inhibition by little substance. `CCOC(=O)c1cc(-c2ccc(NC(=O)c3ccc(Cl)cc3)cc2)n[nH]1`: the concentration for half-maximal inhibition (IC50) was 3.31 mM.
For `CCOC(=O)c1cc(-c2ccc(NC(=O)C(CC)c3ccccc3)cc2)n[nH]1` (configuration not stated), the IC50 is 3.3 mM.
The same measure for `CCCC(=O)Nc1ccc(-c2cc(C(=O)OCC)[nH]n2)cc1`: 17 mM.
On to `CCOC(=O)c1cc(-c2ccc(NS(=O)(=O)c3ccc(C)cc3)cc2)[nH]n1`, for which the IC50 came out at 0.032 mM.
Take `CCOC(=O)c1cc(-c2ccc(NC(=O)c3ccccc3)cc2)n[nH]1`: the 50% inhibitory concentration (IC50) amounted to 8 mM.
In turn, `CCOC(=O)c1cc(-c2ccc(NC(=O)c3ccc(OC)cc3)cc2)n[nH]1` yielded an IC50 of 0.8 mM.
The same measure for `CCCCC(=O)Nc1ccc(-c2cc(C(=O)OCC)n[nH]2)cc1`: 72 mM.
The figure for `CCOC(=O)c1cc(-c2ccc(NC(=O)c3c(Cl)cccc3Cl)cc2)n[nH]1` is 4.8 mM; for `CCOC(=O)c1cc(-c2ccc(NC(=O)c3ccccc3Cl)cc2)n[nH]1` it is 0.11 mM.
The figure for `CCOC(=O)c1cc(-c2ccc(NC(=O)CC)cc2)[nH]n1` is 14 mM; for `CCOC(=O)c1cc(-c2ccc(NC(=O)c3ccc(C)cc3)cc2)n[nH]1` it is 34.6 mM.
The molecule `CCOC(=O)c1cc(-c2ccc(NC(C)=O)cc2)[nH]n1` gave an IC50 of 23 mM.
As to `CCOC(=O)c1cc(-c2ccc(NC(=O)c3ccc(Cl)cc3Cl)cc2)[nH]n1`, it took 0.44 mM to reach half-maximal inhibition (IC50).
The figure for `CCOC(=O)c1cc(-c2ccc(NC(=O)c3ccccc3Br)cc2)n[nH]1` is 2.4 mM.
The same measure for `CCOC(=O)c1cc(-c2ccc(NC(=O)C(F)(F)F)cc2)[nH]n1`: 7.9 mM; for `CCOC(=O)c1cc(-c2ccc(NC(=O)c3ccc(F)cc3)cc2)[nH]n1`: 2.4 mM; for `CCOC(=O)c1cc(-c2ccc(NC(=O)c3c(F)cccc3F)cc2)[nH]n1`: 3.98 mM.
The figure for `CCOC(=O)c1cc(-c2ccc(NC(=O)CCCl)cc2)[nH]n1` is 5.76 mM; for `CCOC(=O)c1cc(-c2ccc(NC(=O)CCCC(=O)O)cc2)n[nH]1` it is 17.4 mM.
As for `CCOC(=O)c1cc(-c2ccc(NC(=O)CCC(=O)O)cc2)[nH]n1`, half-maximal inhibition (IC50) was put at 9.25 mM.
As to `CCOC(=O)c1cc(-c2ccc(NC(=O)Cc3ccccc3)cc2)[nH]n1`, the IC50 came to 0.47 mM.
The figure for `CCOC(=O)c1cc(-c2ccc(NC(=O)c3ccc(CCl)cc3)cc2)n[nH]1` is 3.31 mM.
